ChEMBL document CHEMBL4406836, “The design of a cell-selective fowlicidin-1-derived peptide with both antimicrobial and anti-inflammatory activities” (Eur J Med Chem, 2019)
In brackets after ≈: the same amount, converted by molar mass. Activity calls are given as the source filed them. The calls are words filed in the database; no cut-off is given here.

Assays:
[1] = system: Pseudomonas aeruginosa; assay: Antibacterial activity against multidrug-resistant Pseudomonas aeruginosa CCARM 2095 assessed as reduction in bacterial growth incubated for 72 hrs by spectrophotometry; assay type: functional; settings: CCARM 2095, 72 h
[2] = system: Pseudomonas aeruginosa; assay type: functional; settings: CCARM 2095, 72 h
[3] = system: Pseudomonas aeruginosa; assay: Antibacterial activity against multidrug-resistant Pseudomonas aeruginosa CCARM 2095 assessed as reduction in bacterial growth at 4 uM incubated for 72 hrs in presence of chloramphenicol by spectrophotometry; assay type: functional; settings: CCARM 2095, 72 h
[4] = system: Pseudomonas aeruginosa; assay: Antibacterial activity against multidrug-resistant Pseudomonas aeruginosa CCARM 2095 assessed as reduction in bacterial growth at 4 uM incubated for 72 hrs in presence of ciprofloxacin by spectrophotometry; assay type: functional; settings: CCARM 2095, 72 h
[5] = system: Staphylococcus aureus; assay: Antibacterial activity against methicillin-resistant Staphylococcus aureus CCARM 3089 assessed as reduction in bacterial growth at 8 uM incubated for 72 hrs in presence of chloramphenicol by spectrophotometry; assay type: functional; settings: CCARM 3089, 72 h
[6] = system: Staphylococcus aureus; assay: Antibacterial activity against methicillin-resistant Staphylococcus aureus CCARM 3089 assessed as reduction in bacterial growth at 8 uM incubated for 72 hrs in presence of oxacillin by spectrophotometry; assay type: functional; settings: CCARM 3089, 72 h
[7] = system: Staphylococcus aureus; assay: Fractional inhibitory concentration, ratio of MIC of compound in presence of oxacillin to MIC of oxacillin for antibacterial activity against methicillin-resistant Staphylococcus aureus CCARM 3089; assay type: functional
[8] = system: Staphylococcus aureus; assay: Fractional inhibitory concentration index, sum of ratio of MIC of compound in presence of […] uM oxacillin to MIC of oxacillin and ratio of MIC of compound in presence of oxacillin […] antibacterial activity against methicillin-resistant Staphylococcus aureus CCARM 3089; assay type: functional
[9] = system: Pseudomonas aeruginosa; assay: Potentiation of oxacillin-induced antibacterial activity against mutidrug-resistant Pseudomonas aeruginosa CCARM 2095 assessed as reduction in oxacillin MIC at 1/16th MIC incubated for 72 hrs by spectrophotometry; assay type: functional
[10] = system: Escherichia coli; assay: Antibacterial activity against Escherichia coli KCTC 1682 assessed as reduction in bacterial growth incubated for 18 hrs by spectrophotometry based microtiter broth dilution method; assay type: functional; settings: KCTC 1682, 18 h
[11] = system: Pseudomonas aeruginosa; assay: Antibacterial activity against Pseudomonas aeruginosa KCTC 1637 assessed as reduction in bacterial growth incubated for 18 hrs by spectrophotometry based microtiter broth dilution method; assay type: functional; settings: KCTC 1637, 18 h
[12] = system: Salmonella typhimurium; assay: Antibacterial activity against Salmonella typhimurium KCTC 1926 assessed as reduction in bacterial growth incubated for 18 hrs by spectrophotometry based microtiter broth dilution method; assay type: functional, Salmonella enterica subsp. enterica serovar Typhimurium; settings: Salmonella enterica, KCTC 1926, 18 h
[13] = system: Erythrocyte; assay: Hemolytic activity in sheep RBC assessed as minimal hemolytic concentration causing 10% hemolysis incubated for 2 hrs by ELISA; assay type: ADME, cell-based, Ovis aries
[14] = system: RAW264.7; assay: Cytotoxicity against mouse RAW264.7 cells assessed as reduction in cell viability at upto 16 uM incubated for 48 hrs by MTT assay; assay type: cell-based; settings: raw264.7, 48 h
[15] = system: RAW264.7; assay: Antiinflammatory activity in mouse RAW264.7 cells assessed as reduction in LPS-induced NO production at 10 uM incubated for 48 hrs by Griess reagent based assay; assay type: functional, cell-based
[16] = system: Lipopolysaccharide (LPS); assay: Displacement of BODIPY-TR-cadaverine from Escherichia coli O111:B4 LPS at 16 uM by fluorescence spectrophotometry relative to control
[17] = system: Lipopolysaccharide (LPS); assay: Displacement of BODIPY-TR-cadaverine from Escherichia coli O111:B4 LPS by fluorescence spectrophotometry
[18] = system: Staphylococcus aureus; assay: Potency index, ratio of MIC of LL-37 to MIC of compound for antibacterial activity against methicillin-resistant Staphylococcus aureus CCARM 3089 assessed as reduction in bacterial growth incubated for 18 hrs by spectrophotometry based microtiter broth dilution method; assay type: functional
[19] = system: Staphylococcus aureus; assay: Potency index, ratio of MIC of LL-37 to MIC of compound for antibacterial activity against methicillin-resistant Staphylococcus aureus CCARM 3095 assessed as reduction in bacterial growth incubated for 18 hrs by spectrophotometry based microtiter broth dilution method; assay type: functional
[20] = system: Pseudomonas aeruginosa; assay: Potency index, ratio of MIC of LL-37 to MIC of compound for antibacterial activity against multidrug-resistant Pseudomonas aeruginosa CCARM 2095 assessed as reduction in bacterial growth incubated for 18 hrs by spectrophotometry based microtiter broth dilution method; assay type: functional
[21] = system: Staphylococcus aureus; assay: Potency index, ratio of MIC of melittin to MIC of compound for antibacterial activity against methicillin-resistant Staphylococcus aureus CCARM 3089 assessed as reduction in bacterial growth incubated for 18 hrs by spectrophotometry based microtiter broth dilution method; assay type: functional
[22] = system: Staphylococcus aureus; assay: Potency index, ratio of MIC of melittin to MIC of compound for antibacterial activity against methicillin-resistant Staphylococcus aureus CCARM 3090 assessed as reduction in bacterial growth incubated for 18 hrs by spectrophotometry based microtiter broth dilution method; assay type: functional
[23] = system: Pseudomonas aeruginosa; assay: Potency index, ratio of MIC of melittin to MIC of compound for antibacterial activity against multidrug-resistant Pseudomonas aeruginosa CCARM 2109 assessed as reduction in bacterial growth incubated for 18 hrs by spectrophotometry based microtiter broth dilution method; assay type: functional
[24] = system: Enterococcus faecium; assay: Potency index, ratio of MIC of melittin to MIC of compound for antibacterial activity against vancomycin-resistant Enterococcus faecium ATCC 51559 assessed as reduction in bacterial growth incubated for 18 hrs by spectrophotometry based microtiter broth dilution method; assay type: functional
[25] = system: Escherichia coli; assay: Antibacterial activity against Escherichia coli KCTC 1682 assessed as reduction in bacterial growth incubated for 18 hrs in presence of 4.5 mM KCl by spectrophotometry based microtiter broth dilution method; assay type: functional; settings: KCTC 1682, 18 h
[26] = system: Escherichia coli; assay: Antibacterial activity against Escherichia coli KCTC 1682 assessed as reduction in bacterial growth incubated for 18 hrs in presence of 6 uM NH4Cl by spectrophotometry based microtiter broth dilution method; assay type: functional; settings: KCTC 1682, 18 h
[27] = system: Escherichia coli; assay: Antibacterial activity against Escherichia coli KCTC 1682 assessed as reduction in bacterial growth incubated for 18 hrs in presence of 1 mM MgCl2 by spectrophotometry based microtiter broth dilution method; assay type: functional; settings: KCTC 1682, 18 h
[28] = system: Escherichia coli; assay: Antibacterial activity against Escherichia coli KCTC 1682 assessed as reduction in bacterial growth incubated for 18 hrs in presence of 2.5 mM CaCl2 by spectrophotometry based microtiter broth dilution method; assay type: functional; settings: KCTC 1682, 18 h
[29] = system: Staphylococcus aureus; assay: Antibacterial activity against Staphylococcus aureus KCTC 1621 assessed as reduction in bacterial growth incubated for 18 hrs in presence of 150 mM NaCl by spectrophotometry based microtiter broth dilution method; assay type: functional; settings: KCTC 1621, 18 h
[30] = system: Staphylococcus aureus; assay: Antibacterial activity against Staphylococcus aureus KCTC 1621 assessed as reduction in bacterial growth incubated for 18 hrs in presence of 4.5 mM KCl by spectrophotometry based microtiter broth dilution method; assay type: functional; settings: KCTC 1621, 18 h
[31] = system: Staphylococcus aureus; assay: Antibacterial activity against Staphylococcus aureus KCTC 1621 assessed as reduction in bacterial growth incubated for 18 hrs in presence of 2.5 mM CaCl2 by spectrophotometry based microtiter broth dilution method; assay type: functional; settings: KCTC 1621, 18 h
[32] = system: Staphylococcus aureus; assay: Antibacterial activity against methicillin-resistant Staphylococcus aureus CCARM 3089 assessed as reduction in bacterial growth at 4 uM incubated for 72 hrs in presence of ciprofloxacin by spectrophotometry; assay type: functional; settings: CCARM 3089, 72 h
[33] = system: Staphylococcus aureus; assay: Antibacterial activity against methicillin-resistant Staphylococcus aureus CCARM 3089 assessed as reduction in bacterial growth at 4 uM incubated for 72 hrs in presence of oxacillin by spectrophotometry; assay type: functional; settings: CCARM 3089, 72 h

Compound: CC[C@H](C)[C@H](NC(=O)[C@H](CCCCN)NC(=O)[C@H](CCC(=O)O)NC(=O)[C@H](CCCCN)NC(=O)[C@H](CO)NC(=O)[C@H](CCCCN)NC(=O)[C@H](CCCNC(=N)N)NC(=O)[C@H](Cc1ccccc1)NC(=O)[C@H](Cc1ccccc1)NC(=O)[C@H](CC(=O)O)NC(=O)CNC(=O)[C@H](CC(C)C)NC(=O)[C@@H](N)CC(C)C)C(=O)NCC(=O)N[C@@H](CCCCN)C(=O)N[C@@H](CCC(=O)O)C(=O)N[C@@H](Cc1ccccc1)C(=O)N[C@@H](CCCCN)C(=O)N[C@@H](CCCNC(=N)N)C(=O)N[C@H](C(=O)N[C@H](C(=O)N[C@@H](CCC(N)=O)C(=O)N[C@@H](CCCNC(=N)N)C(=O)N[C@H](C(=O)N[C@@H](CCCCN)C(=O)N[C@@H](CC(=O)O)C(=O)N[C@@H](Cc1ccccc1)C(=O)N[C@@H](CC(C)C)C(=O)N[C@@H](CCCNC(=N)N)C(=O)N[C@@H](CC(N)=O)C(=O)N[C@@H](CC(C)C)C(=O)N[C@H](C(=O)N1CCC[C@H]1C(=O)N[C@@H](CCCNC(=N)N)C(=O)N[C@H](C(=O)N[C@@H](CCC(=O)O)C(=O)N[C@@H](CO)C(=O)O)[C@@H](C)O)C(C)C)[C@@H](C)CC)C(C)C)[C@@H](C)CC [CATHELICIDIN]
- MIC [1]: 4 µM (≈ 18 µg/mL)
- MIC [2]: 512 µM (≈ 2300 µg/mL)
- MIC [3]: 2 µM
- MIC [4]: 2 µM
- MIC [5]: 4 µM
- MIC [6]: 2 µM
- FIC [7]: 0.25
- fractional inhibitory concentration index (FICI) [8]: 0.75
- fold change (FC) [9]: 2 - 4

Compound: H-LVIRWVRAGYKLYRAIKKK-NH2
- MIC [1]: 2 µM
- MIC [10]: 4 µM
- MIC [11]: 8 µM
- MIC [12]: 2 µM
- MHC10 [13]: 105 µM
- Activity [14]: Non-Toxic
- Activity [15]: Active
- inhibition [16]: 100%
- inhibition [17]: Dose-dependent effect
- Ratio [18]: 2 - 8
- Ratio [19]: 2 - 8
- Ratio [20]: 2 - 8
- Ratio [21]: 2 - 8
- Ratio [22]: 2 - 8
- Ratio [23]: 2 - 8
- Ratio [24]: 2 - 8
- MIC [25]: 4 µM
- MIC [26]: 4 µM
- MIC [27]: 4 µM
- MIC [28]: 4 µM
- MIC [29]: 2 µM
- MIC [30]: 2 µM
- MIC [31]: 2 µM
- MIC [2]: 128 µM
- MIC [32]: 0.5 µM
- MIC [33]: 1 µM
- FIC [7]: 0.25
- fractional inhibitory concentration index (FICI) [8]: 0.5
- fold change (FC) [9]: 4 - 16
